Results: the supplement of paper PMC11451515

Experiments:
Conditions in all cases: 48 h
P12-Ichikawa [1] = assay: AUC of viability dose-response curve (% viability x log10 dose units); higher = less sensitive
How it was run: (§1)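 Over 48 h at 37°C, leukemia cells in 1536-well plates (500 or 1000 cells/well), adapted to each medium, received library compounds in DMSO at 11 threefold doses from 47 μM to 0.79 nM. CellTiter-Glo One luminescence, normalised per plate to DMSO and cell-free wells, was fitted by a four-parameter log-logistic function of log10 dose. The area under the curve was then integrated by trapezoidal rule, after scaling curves above full viability and removing those that failed quality control.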

SEM cells [2] = assay: as above
How it was run: as §1

NOMO1 [3] = assay: as above
How it was run: as §1

SEM cells [4] = assay: cell viability relative to DMSO control; higher = less cytotoxic
How it was run: (§2)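 Viability values are per-plate percentages of DMSO wells, with background from cell-free wells. Library compounds in DMSO were pin-dosed, in an 11-point threefold series from 47 μM to 0.79 nM, onto NOMO1 or SEM (500 cells/well) or P12-Ichikawa (1000 cells/well) leukemia cells in 1536-well plates (5 μl). Those cells had been adapted for at least four passages in each medium, and CellTiter-Glo One luminescence was read after 48 h at 37°C.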

P12-Ichikawa [5] = assay: as above
How it was run: as §2

NOMO1 [6] = assay: as above
How it was run: as §2

O=C1c2c(O)cc(O)cc2O[C@H](c2ccc(O)c(O)c2)[C@H]1O
AUC of viability dose-response curve
Conditions	NOMO1 [3]	P12-Ichikawa [1]	SEM cells [2]
HPLM + 10% dialyzed FBS	469	459	454
RPMI 5 mM glucose + 10% FBS	475	453	470
RPMI 5 mM glucose + 10% dialyzed FBS	453	465	450

cell viability [%], SEM cells [4]
Conditions	HPLM + 10% dialyzed FBS	RPMI 5 mM glucose + 10% FBS
0.000781 µM	113	121
0.00234 µM	120	123
0.00702 µM	132	136
0.0211 µM	113	150
0.0632 µM	117	126
0.19 µM	125	126
0.569 µM	127	122
1.71 µM	143	122
5.12 µM	126	127
15.4 µM	127	125
46.1 µM	131	128

CN1[C@@H]2CC[C@H]1CC(OC(=O)c1c[nH]c3ccccc13)C2 (stereo partly drawn)
AUC of viability dose-response curve
Conditions	HPLM + 10% dialyzed FBS	RPMI 5 mM glucose + 10% FBS	RPMI 5 mM glucose + 10% dialyzed FBS
NOMO1 [3]	436	459	444
P12-Ichikawa [1]	463	468	466

cell viability [%]
Conditions	NOMO1 [6]	P12-Ichikawa [5]	SEM cells [4]
HPLM + 10% dialyzed FBS, 0.000781 µM	–	125	111
HPLM + 10% dialyzed FBS, 0.00234 µM	–	127	109
HPLM + 10% dialyzed FBS, 0.00702 µM	–	119	118
HPLM + 10% dialyzed FBS, 0.0211 µM	–	96.1	25.9
HPLM + 10% dialyzed FBS, 0.0632 µM	–	110	130
HPLM + 10% dialyzed FBS, 0.19 µM	–	117	130
HPLM + 10% dialyzed FBS, 0.569 µM	–	116	126
HPLM + 10% dialyzed FBS, 1.71 µM	–	126	117
HPLM + 10% dialyzed FBS, 5.12 µM	–	111	114
HPLM + 10% dialyzed FBS, 15.4 µM	–	114	114
HPLM + 10% dialyzed FBS, 46.1 µM	–	111	124
RPMI 5 mM glucose + 10% FBS, 0.000781 µM	115	–	113
RPMI 5 mM glucose + 10% FBS, 0.00234 µM	125	–	115
RPMI 5 mM glucose + 10% FBS, 0.00702 µM	120	–	124
RPMI 5 mM glucose + 10% FBS, 0.0211 µM	114	–	17.8
RPMI 5 mM glucose + 10% FBS, 0.0632 µM	129	–	123
RPMI 5 mM glucose + 10% FBS, 0.19 µM	112	–	116
RPMI 5 mM glucose + 10% FBS, 0.569 µM	106	–	111
RPMI 5 mM glucose + 10% FBS, 1.71 µM	117	–	119
RPMI 5 mM glucose + 10% FBS, 5.12 µM	124	–	137
RPMI 5 mM glucose + 10% FBS, 15.4 µM	114	–	98.6
RPMI 5 mM glucose + 10% FBS, 46.1 µM	99.3	–	93.6
RPMI 5 mM glucose + 10% dialyzed FBS, 0.000781 µM	119	120	–
RPMI 5 mM glucose + 10% dialyzed FBS, 0.00234 µM	127	115	–
RPMI 5 mM glucose + 10% dialyzed FBS, 0.00702 µM	119	121	–
RPMI 5 mM glucose + 10% dialyzed FBS, 0.0211 µM	107	107	–
RPMI 5 mM glucose + 10% dialyzed FBS, 0.0632 µM	109	116	–
RPMI 5 mM glucose + 10% dialyzed FBS, 0.19 µM	115	116	–
RPMI 5 mM glucose + 10% dialyzed FBS, 0.569 µM	113	120	–
RPMI 5 mM glucose + 10% dialyzed FBS, 1.71 µM	118	117	–
RPMI 5 mM glucose + 10% dialyzed FBS, 5.12 µM	119	118	–
RPMI 5 mM glucose + 10% dialyzed FBS, 15.4 µM	104	113	–
RPMI 5 mM glucose + 10% dialyzed FBS, 46.1 µM	94.9	107	–

CCCCn1c(=O)n(Cc2ccccc2F)c(=O)c2nc(Cc3ccc(NC(C)=O)cc3)[nH]c21
AUC of viability dose-response curve
Conditions	HPLM + 10% dialyzed FBS	RPMI 5 mM glucose + 10% FBS	RPMI 5 mM glucose + 10% dialyzed FBS
P12-Ichikawa [1]	425	409	410
SEM cells [2]	452	442	444

cell viability [%]
Conditions	NOMO1 [6]	P12-Ichikawa [5]	SEM cells [4]
HPLM + 10% dialyzed FBS, 0.000781 µM	97.6	93.4	101
HPLM + 10% dialyzed FBS, 0.00234 µM	155	95.6	98.7
HPLM + 10% dialyzed FBS, 0.00702 µM	75.7	94.6	87.6
HPLM + 10% dialyzed FBS, 0.0211 µM	24.9	90.1	109
HPLM + 10% dialyzed FBS, 0.0632 µM	52.4	88.6	104
HPLM + 10% dialyzed FBS, 0.19 µM	77.6	88.8	84.9
HPLM + 10% dialyzed FBS, 0.569 µM	86	89.4	89.8
HPLM + 10% dialyzed FBS, 1.71 µM	76.5	79.6	97
HPLM + 10% dialyzed FBS, 5.12 µM	78.6	85.5	98.2
HPLM + 10% dialyzed FBS, 15.4 µM	68.6	83.3	81.1
HPLM + 10% dialyzed FBS, 46.1 µM	71.2	92.8	93.7
RPMI 5 mM glucose + 10% FBS, 0.000781 µM	82.3	87.9	101
RPMI 5 mM glucose + 10% FBS, 0.00234 µM	82.9	87.8	102
RPMI 5 mM glucose + 10% FBS, 0.00702 µM	78.1	89.9	105
RPMI 5 mM glucose + 10% FBS, 0.0211 µM	79.5	85	89.5
RPMI 5 mM glucose + 10% FBS, 0.0632 µM	82.5	94.5	90.3
RPMI 5 mM glucose + 10% FBS, 0.19 µM	77.8	88.3	86.9
RPMI 5 mM glucose + 10% FBS, 0.569 µM	83.9	82.7	88.1
RPMI 5 mM glucose + 10% FBS, 1.71 µM	82.4	75.5	97.6
RPMI 5 mM glucose + 10% FBS, 5.12 µM	79.5	82.5	92.1
RPMI 5 mM glucose + 10% FBS, 15.4 µM	86.7	79.2	96.1
RPMI 5 mM glucose + 10% FBS, 46.1 µM	76.9	89.1	99.5
RPMI 5 mM glucose + 10% dialyzed FBS, 0.000781 µM	107	88.2	92.9
RPMI 5 mM glucose + 10% dialyzed FBS, 0.00234 µM	108	82.1	91.3
RPMI 5 mM glucose + 10% dialyzed FBS, 0.00702 µM	106	87.2	98.7
RPMI 5 mM glucose + 10% dialyzed FBS, 0.0211 µM	104	91.3	81.5
RPMI 5 mM glucose + 10% dialyzed FBS, 0.0632 µM	125	90.5	110
RPMI 5 mM glucose + 10% dialyzed FBS, 0.19 µM	59.5	78.6	85.5
RPMI 5 mM glucose + 10% dialyzed FBS, 0.569 µM	57.7	86.3	85
RPMI 5 mM glucose + 10% dialyzed FBS, 1.71 µM	89.6	90.7	99
RPMI 5 mM glucose + 10% dialyzed FBS, 5.12 µM	69.4	85.9	97.3
RPMI 5 mM glucose + 10% dialyzed FBS, 15.4 µM	63.8	79.7	90.9
RPMI 5 mM glucose + 10% dialyzed FBS, 46.1 µM	68.8	83	91.8

Cn1cc(/C=C/C(=O)c2cccc(F)c2)cc1/C=C/C(=O)NO
AUC of viability dose-response curve
Conditions	NOMO1 [3]	P12-Ichikawa [1]	SEM cells [2]
HPLM + 10% dialyzed FBS	468	466	474
RPMI 5 mM glucose + 10% FBS	470	475	476
RPMI 5 mM glucose + 10% dialyzed FBS	468	462	469

SEM cells [4], HPLM + 10% dialyzed FBS
Conditions	cell viability [%]
0.000781 µM	123
0.00234 µM	133
0.00702 µM	120
0.0211 µM	129
0.0632 µM	136
0.19 µM	120
0.569 µM	137
1.71 µM	128
5.12 µM	137
15.4 µM	132
46.1 µM	118
